Results on one compound are retold here after publication PMC8662641, “Site-Specific Labeling of Endogenous Proteins Using CoLDR Chemistry” (Journal of the American Chemical Society, 2021).

Molecules are shown by their SMILES.

The target of assay [1] is T1, BTK (Homo sapiens, UniProt Q06187). The assay is described as follows: In-gel fluorescence labeling profile in Mino cells. The following applies: 2 h incubation, in-gel fluorescence.
Protocol: Lysates were then diluted to 2 mg/mL in PBS. […] The samples were incubated at 25 °C for 2 h. A 20 μL amount of 4× LDS sample buffer (NuPAGE, Thermo Fisher Scientific, NP0007) was added followed by a 10 min incubation at 70 °C.
The 1× chloroform, 4× methanol, and 3× water were added to the samples and vortexed thoroughly. The samples were spun down for 10 min at 4 °C. The top layer was aspirated, and the pellet was resuspended in 4× methanol. The sample was vortexed and spun down again for 10 min at 4 °C, the solution was removed, and the pellet was dried for 2 min. The pellet was dissolved in 42 μL of PBS followed by 14 μL of 4× sample buffer. The samples were then loaded on a 4–20% Bis-Tris gel (SurePAGE, GeneScript) and imaged using a Typhoon FLA 9500 scanner.
The target in assay [2] is T2, BTK kinase domain (Homo sapiens, UniProt Q06187). The assay is described as follows: Labeling of recombinant BTK by intact protein LC/MS. The class given is binding. The arrangement: BTK kinase domain was expressed and purified as previously reported; made in house. The following applies: BTK 10.7 µM, 20 µM compound, 1 hour.
For assay [3], the target named is T2, BTK kinase domain. Kind of assay: MS/MS site-of-labeling analysis of BTK tryptic peptides. The class given is binding. The arrangement: BTK kinase domain was expressed and purified as previously reported; made in house. The protocol: 100 μl of 5 μM Recombinant BTK kinase domain was incubated in 20 mM Tris with 50 μM of 1b or DMSO. The compounds were then removed by methanol-chloroform (400 μL MeOH+100 μL CHCl3+300 μL H2O) precipitation of the protein. The dry pellet was dissolved in 50 μl of 50 mM Tris pH 8 + 5% SDS and heated to 95 °C for 6 min. The concentration of the protein was estimated using BCA assay (using BSA as the standard). 2 μg each sample were diluted to 15 μl with Tris 50 mM pH 8 + 5% SDS, reduced with DTT (0.75 μl of 0.1 M in 5% SDS/Tris 50 mM pH 8, 45 min 65 °C), cooled to room temperature, then alkylated with 0.75 μl of 0.2 M iodoacetamide in water (30 min room temperature in the dark). The protein was then isolated and trypsinized on s-traps (Protifi) according to the manufacturer's instructions. Triplicates were prepared for each […]
ULC/MS grade solvents were used for all chromatographic steps. Each sample was loaded using split-less nano-Ultra Performance Liquid Chromatography (10 kpsi nanoAcquity; Waters, Milford, MA, USA). The mobile phase was: A) H2O + 0.1% formic acid and B) acetonitrile + 0.1% formic acid. Desalting of the samples was performed online using a reversed-phase Symmetry C18 trapping column (180 µm internal diameter, 20 mm length, 5 µm particle size; Waters). The peptides were then separated using a T3 HSS nano-column (75 µm internal diameter, 250 mm length, 1.8 µm particle size; Waters) at 0.35 µL/min. Peptides were eluted from the column into the mass spectrometer using the following gradient: 4% to 30%B in 155 min, 35% to 90%B in 5 min, maintained at 90% for 5 min and then back to initial conditions.
The nanoUPLC was coupled online through a nanoESI emitter (10 μm tip; New Objective; Woburn, MA, USA) to a quadrupole orbitrap mass spectrometer (Q Exactive HFX, Thermo Scientific) using a FlexIon nanospray apparatus (Proxeon).
Data was acquired in data dependent acquisition (DDA) mode, using a Top10 method. MS1 […]
maximum injection time was set to 60msec. MS2 resolution was set to 15,000, quadrupole isolation 1.7 m/z, AGC of 1e5, dynamic exclusion of 45 sec and maximum injection time of 60 […]
Analysis was done using MaxQuant 1.6.3.4. The sequence of BTK was used for the analysis. The digestion enzyme was set to Trypsin with a maximum number of missed cleavages of 0.
Carbamidomethyl and the modification by the molecule were included as variable modifications on cysteine. The “Re-quantify” option was enabled. Contaminants were included. Peptides were searched with a minimum peptide length of 7 and a maximum peptide mass of 4,500 Da. “Second peptides” were enabled and “Dependent peptides” were disabled. The option “Match between runs” was enabled with a Match time window of 0.7 min and an alignment window of 20 min. An FDR of 0.01 was used for Protein FDR, PSM FDR and XPSM FDR. The triplicate measured for each compound (or for DMSO-treated protein) was analyzed separately.
Following MaxQuant analysis, only fully cleaved peptides were quantified and cysteine-containing peptides that were not modified by either iodoacetamide or compound were ignored.
The intensity for each peptide was calculated as the average of the three triplicates. If the intensity was zero for one of the replicates the peptide was ignored. The intensities for the non-cysteine containing peptides were averaged for each data set and used to normalize the intensity of cysteine-containing peptides. Estimation of the extent of labeling of cysteine-containing peptides in the sequence was done by comparing the intensity of carbamidomethyl-modified peptides between the DMSO and molecule-treated samples. MS/MS spectra for the carbamidomethyl-modified and molecule modified peptides were extracted using Skyline. […]
The obtained

The target of assay [4] is T1, BTK. Kind of assay: BTK activity in Mino cells (autophosphorylation). Format: cell-based. Details: We incubated Mino B cells with probes containing different tags; endogenous in cells; host or cells: Mino cells. The following applies: Mino cells, 1 h; 100 nM probes, 1 μM ibrutinib or Ibr-H. The protocol: The cells were harvested, and immunoblots of phospho-BTK, total-BTK, and β-actin were performed.
Cell pellets were washed with ice-cold PBS and lysed using RIPA buffer (Sigma, R0278). […] Samples containing 50 μg of total protein were prepared with 4× LDS sample buffer (NuPAGE, Thermo Fischer Scientific, NP0007) and were then resolved on a 4–20% Bis-Tris gel (GeneScript SurePAGE, M00657). […] The EZ-ECL kit (Biological Industries, 20-500-1000) was used to detect HRP activity.

T2 sequence (Q06187 402-655 limits assumed): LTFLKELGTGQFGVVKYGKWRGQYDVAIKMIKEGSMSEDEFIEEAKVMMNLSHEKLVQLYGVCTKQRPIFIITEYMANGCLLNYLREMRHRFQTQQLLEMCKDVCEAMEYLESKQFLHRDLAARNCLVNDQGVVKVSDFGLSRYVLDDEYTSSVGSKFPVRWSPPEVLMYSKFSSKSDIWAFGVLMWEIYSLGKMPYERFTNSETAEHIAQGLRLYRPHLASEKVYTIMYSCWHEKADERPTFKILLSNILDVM
T1 sequence (Q06187 whole entry, the tested form may be a part): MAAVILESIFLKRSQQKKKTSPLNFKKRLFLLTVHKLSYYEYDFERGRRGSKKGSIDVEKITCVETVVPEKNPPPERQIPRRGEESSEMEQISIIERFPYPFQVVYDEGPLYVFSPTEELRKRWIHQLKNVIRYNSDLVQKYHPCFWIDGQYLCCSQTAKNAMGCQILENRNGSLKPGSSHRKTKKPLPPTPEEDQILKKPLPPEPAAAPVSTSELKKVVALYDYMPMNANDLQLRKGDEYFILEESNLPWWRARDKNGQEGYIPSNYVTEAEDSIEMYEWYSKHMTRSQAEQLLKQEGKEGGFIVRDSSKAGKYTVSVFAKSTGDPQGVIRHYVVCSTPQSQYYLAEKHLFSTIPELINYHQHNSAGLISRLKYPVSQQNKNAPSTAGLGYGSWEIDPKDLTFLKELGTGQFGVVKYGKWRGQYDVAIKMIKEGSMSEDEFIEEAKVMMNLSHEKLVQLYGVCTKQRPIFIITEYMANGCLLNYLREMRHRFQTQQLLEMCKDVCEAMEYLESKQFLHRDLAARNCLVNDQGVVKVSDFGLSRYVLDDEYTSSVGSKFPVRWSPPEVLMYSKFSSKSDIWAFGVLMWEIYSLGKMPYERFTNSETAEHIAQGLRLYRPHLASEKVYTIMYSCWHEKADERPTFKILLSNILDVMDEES

`C#CCCNC(=O)C(=C)CN1CCC[C@@H](n2nc(-c3ccc(Oc4ccccc4)cc3)c3c(N)ncnc32)C1` [1b]: the “labeling of BTK in live Mino cells” value at BTK [1] is “robust labeling even at a concentration of 10 nM”. For the same compound, the “labeling of BTK (SPR sample preparation)” value on BTK kinase domain [2] is on record as 100%. Also, the “site of modification on BTK” value on BTK kinase domain [3] (LC/MS/MS of tryptic peptides) is reported as “Cys481”. The “1b/DMSO ratio after correction” value at BTK kinase domain [3] (iodoacetamide labeled peptide 457-466 LVQLYGVCTK) is 0.891; on BTK kinase domain [3] (iodoacetamide labeled peptide 467-487 QRPIFIITEYMANGCLLNYLR) it was 0.092; on BTK kinase domain [3] (iodoacetamide labeled peptide 493-503 FQTQQLLEMCK), 0.469; on BTK kinase domain [3] (iodoacetamide labeled peptide 504-515 DVCEAMEYLESK), 0.413; on BTK kinase domain [3] (iodoacetamide labeled peptide 526-536 NCLVNDQGVVK), 0.724; on BTK kinase domain [3] (iodoacetamide labeled peptide 626-637 VYTIMYSCWHEK), 0.735. Also, the “BTK autophosphorylation after anti-IgM” value on BTK [4] was “BTK remained active after labeling”.
